Data from the supplement of paper PMC10307832.

Key:
Experiment in all cases: relative viability (nuclei count vs DMSO), 5 days (fraction); higher = more cells survive
NCI-H1993 = test system: NCI-H1993
Summary of the method: (§1)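 Relative viability divides the nuclei count in treated wells by that in vehicle wells. Lung cancer cell lines were seeded in 1536-well plates, dosed by pin tool the next day, and fixed and stained after 5 days in one step with final 0.05% Triton X-100, 1% formaldehyde and 1 ug/ml Hoechst. Dosing was a single drug or a fixed anchor-drug dose plus five library-drug doses (not always all listed) in √10 steps, and values are medians of duplicate plates imaged at 4×.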

HCC-44 = test system: HCC-44
Summary of the method: as §1

NCI-H2085 = test system: NCI-H2085
Summary of the method: as §1

EKVX = test system: EKVX
Summary of the method: as §1

NCI-H2126 = test system: NCI-H2126
Summary of the method: as §1

NCI-H1648 = test system: NCI-H1648
Summary of the method: as §1

RERF-LC-KJ = test system: RERF-LC-KJ
Summary of the method: as §1

In the case of O=c1cc(N2CCOCC2)oc2c(-c3cccc4c3sc3ccccc34)cccc12 + CC(=O)Nc1cccc(-n2c(=O)n(C3CC3)c(=O)c3c(Nc4ccc(I)cc4F)n(C)c(=O)c(C)c32)c1 [Trametinib] (partner 0.02 µM), the relative viability (NCI-H1993; first compound 0.01 µM) is reported as 0.507, the relative viability (NCI-H1993; first compound 0.03162 µM) is reported as 0.601 and the relative viability (NCI-H1993; first compound 0.1 µM) is reported as 0.507. The relative viability (NCI-H1993; first compound 0.3162 µM) was 0.407, the relative viability (NCI-H1993; first compound 1 µM) was 0.516 and the relative viability (HCC-44; first compound 0.01 µM) was 1.04. It also gave a relative viability (HCC-44; first compound 0.03162 µM) of 1.06, a relative viability (HCC-44; first compound 0.1 µM) of 1.02 and a relative viability (HCC-44; first compound 0.3162 µM) of 1.04. For the same compound, the relative viability (HCC-44; first compound 1 µM) was 1.03, the relative viability (NCI-H2085; first compound 0.01 µM) was 0.515 and the relative viability (NCI-H2085; first compound 0.03162 µM) was 0.541. It also gave a relative viability (NCI-H2085; first compound 0.1 µM) of 0.515, a relative viability (NCI-H2085; first compound 0.3162 µM) of 0.577 and a relative viability (NCI-H2085; first compound 1 µM) of 0.454. The relative viability (EKVX; first compound 0.01 µM) was 0.299, the relative viability (EKVX; first compound 0.03162 µM) was 0.312 and the relative viability (EKVX; first compound 0.1 µM) was 0.337. The relative viability (EKVX; first compound 0.3162 µM) was 0.321, the relative viability (EKVX; first compound 1 µM) was 0.303 and the relative viability (NCI-H2126; first compound 0.01 µM) was 0.543. It also gave a relative viability (NCI-H2126; first compound 0.03162 µM) of 0.52, a relative viability (NCI-H2126; first compound 0.1 µM) of 0.54 and a relative viability (NCI-H2126; first compound 0.3162 µM) of 0.567. For the same compound, the relative viability (NCI-H2126; first compound 1 µM) was 0.569, the relative viability (NCI-H1648; first compound 0.03162 µM) was 0.471 and the relative viability (NCI-H1648; first compound 0.1 µM) was 0.5. It also gave a relative viability (NCI-H1648; first compound 0.3162 µM) of 0.446, a relative viability (NCI-H1648; first compound 1 µM) of 0.483 and a relative viability (RERF-LC-KJ; first compound 0.01 µM) of 0.824. The relative viability (RERF-LC-KJ; first compound 0.03162 µM) was 0.874, the relative viability (RERF-LC-KJ; first compound 0.1 µM) was 0.936 and the relative viability (RERF-LC-KJ; first compound 0.3162 µM) was 0.836. The relative viability (RERF-LC-KJ; first compound 1 µM) was 0.798.
CCN(CC)CCCCNc1ncc2cc(-c3cc(OC)cc(OC)c3)c(NC(=O)NC(C)(C)C)nc2n1 + CC(=O)Nc1cccc(-n2c(=O)n(C3CC3)c(=O)c3c(Nc4ccc(I)cc4F)n(C)c(=O)c(C)c32)c1 [Trametinib] (partner 0.02 µM) was tested, and the relative viability (NCI-H1993; first compound 0.01 µM) was 0.567, the relative viability (NCI-H1993; first compound 0.03162 µM) was 0.5 and the relative viability (NCI-H1993; first compound 0.1 µM) was 0.53. It also gave a relative viability (NCI-H1993; first compound 0.3162 µM) of 0.557, a relative viability (NCI-H1993; first compound 1 µM) of 0.0258 and a relative viability (HCC-44; first compound 0.01 µM) of 0.987. The relative viability (HCC-44; first compound 0.03162 µM) was 1.08, the relative viability (HCC-44; first compound 0.1 µM) was 1.1 and the relative viability (HCC-44; first compound 0.3162 µM) was 1.11. The relative viability (HCC-44; first compound 1 µM) was 0.931, the relative viability (NCI-H2085; first compound 0.01 µM) was 0.521 and the relative viability (NCI-H2085; first compound 0.03162 µM) was 0.682. The relative viability (NCI-H2085; first compound 0.1 µM) was 0.496, the relative viability (NCI-H2085; first compound 0.3162 µM) was 0.469 and the relative viability (NCI-H2085; first compound 1 µM) was 0.547. The relative viability (EKVX; first compound 0.03162 µM) was 0.4, the relative viability (EKVX; first compound 0.1 µM) was 0.365 and the relative viability (EKVX; first compound 0.3162 µM) was 0.328. The relative viability (EKVX; first compound 1 µM) was 0.311, the relative viability (NCI-H2126; first compound 0.01 µM) was 0.533 and the relative viability (NCI-H2126; first compound 0.03162 µM) was 0.578. The relative viability (NCI-H2126; first compound 0.1 µM) was 0.58, the relative viability (NCI-H2126; first compound 0.3162 µM) was 0.58 and the relative viability (NCI-H2126; first compound 1 µM) was 0.578. It also gave a relative viability (NCI-H1648; first compound 0.01 µM) of 0.368, a relative viability (NCI-H1648; first compound 0.03162 µM) of 0.49 and a relative viability (NCI-H1648; first compound 0.1 µM) of 0.396. The relative viability (NCI-H1648; first compound 0.3162 µM) was 0.46, the relative viability (NCI-H1648; first compound 1 µM) was 0.367 and the relative viability (RERF-LC-KJ; first compound 0.01 µM) was 0.925. For the same compound, the relative viability (RERF-LC-KJ; first compound 0.03162 µM) was 0.923, the relative viability (RERF-LC-KJ; first compound 0.1 µM) was 0.94 and the relative viability (RERF-LC-KJ; first compound 0.3162 µM) was 0.906. For the same compound, the relative viability (RERF-LC-KJ; first compound 1 µM) was 0.818.
Work on O=c1cc(-c2cccc3c2Sc2ccccc2S3)oc(N2CCOCC2)c1 + CC(=O)Nc1cccc(-n2c(=O)n(C3CC3)c(=O)c3c(Nc4ccc(I)cc4F)n(C)c(=O)c(C)c32)c1 [Trametinib] (partner 0.02 µM) yielded a relative viability (NCI-H1993; first compound 0.08 µM) of 0.462, a relative viability (NCI-H1993; first compound 0.253 µM) of 0.64 and a relative viability (NCI-H1993; first compound 0.8 µM) of 0.46. For the same compound, the relative viability (NCI-H1993; first compound 2.53 µM) was 0.467, the relative viability (NCI-H1993; first compound 8 µM) was 0.544 and the relative viability (HCC-44; first compound 0.08 µM) was 0.993. The relative viability (HCC-44; first compound 0.253 µM) was 1.01, the relative viability (HCC-44; first compound 0.8 µM) was 0.985 and the relative viability (HCC-44; first compound 2.53 µM) was 1.01. It also gave a relative viability (HCC-44; first compound 8 µM) of 1.07, a relative viability (NCI-H2085; first compound 0.08 µM) of 0.526 and a relative viability (NCI-H2085; first compound 0.253 µM) of 0.573. It also gave a relative viability (NCI-H2085; first compound 0.8 µM) of 0.441, a relative viability (NCI-H2085; first compound 2.53 µM) of 0.401 and a relative viability (NCI-H2085; first compound 8 µM) of 0.446. The relative viability (EKVX; first compound 0.08 µM) was 0.554, the relative viability (EKVX; first compound 0.253 µM) was 0.332 and the relative viability (EKVX; first compound 0.8 µM) was 0.296. For the same compound, the relative viability (EKVX; first compound 2.53 µM) was 0.332, the relative viability (EKVX; first compound 8 µM) was 0.336 and the relative viability (NCI-H2126; first compound 0.08 µM) was 0.583. It also gave a relative viability (NCI-H2126; first compound 0.253 µM) of 0.583, a relative viability (NCI-H2126; first compound 0.8 µM) of 0.526 and a relative viability (NCI-H2126; first compound 2.53 µM) of 0.508. The relative viability (NCI-H2126; first compound 8 µM) was 0.474, the relative viability (NCI-H1648; first compound 0.253 µM) was 0.515 and the relative viability (NCI-H1648; first compound 0.8 µM) was 0.427. It also gave a relative viability (NCI-H1648; first compound 8 µM) of 0.389, a relative viability (RERF-LC-KJ; first compound 0.08 µM) of 0.79 and a relative viability (RERF-LC-KJ; first compound 0.253 µM) of 0.856. It also gave a relative viability (RERF-LC-KJ; first compound 0.8 µM) of 0.89, a relative viability (RERF-LC-KJ; first compound 2.53 µM) of 0.895 and a relative viability (RERF-LC-KJ; first compound 8 µM) of 0.784.
